Each structure is given as a SMILES string.

Data set [1] deals with Recombinant human integrin αvβ8 (Homo sapiens (Human), UniProt P06756+P26012). In words: Solid Phase Receptor Assay (SPRA) for αvβ8 function. Type of data set: binding. The conditions noted are these: LAP-coated plate. As for the experimental part:
6. Solid Phase Receptor Assay (SPRA) for αvβ8 Function
Recombinant human LAP protein (R&D Systems, Inc, 246-LP) diluted to 0.5 μg/mL in TBS+ buffer (25 mM Tris pH 7.4, 137 mM NaCl, 2.7 mM KCl, 1 mM CaCl2, 1 mM MgCl2, 1 mM MnCl2) was added to wells (50 μl/well) of a 96-well half-well transparent microtiter plate (Greiner 675061), and incubated overnight at 4° C. Wells were washed 3 times with 150 μL TBS+ and 150 μL of blocking buffer (TBS+ with 1% bovine serum albumin, Sigma A7906) were added. The plate was incubated for 1 hr at 37° C. and then washed 3× with TBS+. Recombinant human integrin αvβ8 (R&D Systems, 4135-AV) was diluted to 0.1 μg/mL in TBS+/0.1% bovine serum albumin. Compounds were diluted 1:100 into the integrin solution and 50 μL added to empty wells of the washed LAP-coated plate according to a standard template with each sample repeated in triplicate. After incubation for two hours at room temperature, the plate was washed 3× with 150 μL of TBS+. To each well, 50 μL of biotinylated anti-αv antibody (R&D Systems, BAF1219) at 1 μg/mL in TBS+/0.1% BSA were added and the plate was covered and incubated for 1 hr at room temperature. After washing the plate 3× with 150 μL of TBS+ buffer, 50 μL of streptavidin-conjugated horseradish peroxidase (R&D Systems, DY998) diluted in TBS+ blocking buffer were added to the wells and the plate incubated for 20 min at room temperature. The plate was washed 3× with TBS+ followed by 50 μL of TMB substrate (Sigma T4444) added to each well and the plate incubated for 20 min at room temperature. Plates were read by colorimetric detection at 650 nm wavelength using a Tecan Safire II plate reader. Concentration-response curves were constructed by non-linear regression (best fit) analysis, and IC50 values were calculated for each compound.

Data set [2] can be described thus: IV cassette pharmacokinetic study in male Sprague-Dawley rats (Saint Louis University). Type of data set: in vivo. The conditions noted are these: plasma; male Sprague-Dawley rat, 1 mg/kg IV cassette, sampling to 24 h; read-out: plasma t½ after 1 mg/kg IV bolus dose in rat (converted). How it is done:
(§1) A minimally sufficient volume of dimethylsulfoxide (DMSO) was added to each test compound to achieve solubilization. For intravenous (IV) delivery, compounds were then formulated as solutions in glycerol formal: saline (either 20:80 or 40:60 v/v) (Sigma Chemicals, St. Louis). For oral (PO) administration, compounds were formulated with 0.5% methylcellulose. Five to six compound solutions were combined into a singled mixed solution for IV and PO cassette administration with final DMSO concentrations <0.6% or <1.2%, for the IV and PO cassettes, respectively. Analytes were detected in test samples using an LC/MS/MS (liquid chromatography/mass spectrometry) system consisting of an LC-20AD pump (Shimadzu, Kyoto, Japan), an HTC PAL autosampler (Leap technologies, Carrboro, N.C.), and a Sciex API-4000 mass spectrometer in ESI mode (AB Sciex, Foster City, Calif.). An Amour C18 reverse phase column (Analytical Sales and Services, Pompton Plains, N.J.) was used for chromatographic separation.
(§2) Pharmacokinetic (PK) studies conducted at Saint Louis University used male Sprague-Dawley rats with an initial body weight of 200 to 220 g. IV PK studies were performed with the following compounds: Examples 1-3 and 5-17 and comparison compounds C12-C18, C29, and C30. Animals were allowed free access to food and water. Rats were individually housed and connected to jugular vein catheters. Each cassette formulation was administered intravenously to two rats (1 mL/kg body weight). Each cassette formulation contained 5-6 compounds at 1 mg/kg in either 20:80 or 40/60 glycerol formal/saline (v/v). Blood was collected manually via the catheter into lithium-heparin tubes at 0.017, 0.083, 0.5, 1, 2, 4, 6 and 24 hours post-dose. Animals were euthanized with CO2 at the end of the experiment.
(§3) Internal standard was added to all samples at 200 ng/mL (final), as well as 150 μL of acetonitrile. Plasma samples (50 μL total volume) were diluted with control nave rat plasma as appropriate to bring the sample measurement into the linear dynamic range of the standard curve. The samples were capped and mixed on a multi-plate vortexer for 5 minutes and centrifuged for 5 minutes at 3200 rmp. The supernant was transferred to 96-well sample plate and capped for LC/MS/MS analysis. Compounds were optimized and monitored for their respective MRM transitions. The mobile phases consisted of 0.1% formic acid (aqueous) and 100% acetonitrile (organic) with an Amour C18 reverse phase column (2.1×30 mm, 5 micron) at a flow rate of 0.35 mL/min. The starting phase was 10% acetonitrile for the 0.9 minutes then increased to 90% acetonitrile over 0.4 minutes, and was maintained for an additional 0.2 minutes before returning to 10% acetonitrile over 0.4 minutes. The 10% acetonitrile was held for an additional 1.6 minutes. Peak areas were integrated using Analyst 1.5.1 (AB Sciex, Foster City, Calif.).

The nature of data set [3]: Oral (PO) cassette pharmacokinetic study in male Sprague-Dawley rats. The conditions noted are these: plasma; male Sprague-Dawley rat, 2 mg/kg oral gavage cassette in 0.5% methylcellulose; read-out: AUC (0-inf) after a 2 mg/kg PO dose in rat. In kind it is in vivo. As for the experimental part: as §1, §2
Oral PK studies were conducted with the following compounds: Examples 1-3 and 5-17 and comparison compounds C12, C14-16 and C29-30. The PO cassette formulations were administered via oral gavage to two rats (10 mL/kg body weight) containing 5-6 compounds per cassette. The oral dose was administered at 2 mg/kg/compound in 0.5% methylcellulose. Blood collection time points were 0.25, 0.5, 1, 2, 4, 6 and 24 hours post-dose into lithium-heparin tubes. Animals were euthanized with CO2 at the end of the experiment.
as §3

Recombinant human integrin αvβ8, sequence (P06756 31-992): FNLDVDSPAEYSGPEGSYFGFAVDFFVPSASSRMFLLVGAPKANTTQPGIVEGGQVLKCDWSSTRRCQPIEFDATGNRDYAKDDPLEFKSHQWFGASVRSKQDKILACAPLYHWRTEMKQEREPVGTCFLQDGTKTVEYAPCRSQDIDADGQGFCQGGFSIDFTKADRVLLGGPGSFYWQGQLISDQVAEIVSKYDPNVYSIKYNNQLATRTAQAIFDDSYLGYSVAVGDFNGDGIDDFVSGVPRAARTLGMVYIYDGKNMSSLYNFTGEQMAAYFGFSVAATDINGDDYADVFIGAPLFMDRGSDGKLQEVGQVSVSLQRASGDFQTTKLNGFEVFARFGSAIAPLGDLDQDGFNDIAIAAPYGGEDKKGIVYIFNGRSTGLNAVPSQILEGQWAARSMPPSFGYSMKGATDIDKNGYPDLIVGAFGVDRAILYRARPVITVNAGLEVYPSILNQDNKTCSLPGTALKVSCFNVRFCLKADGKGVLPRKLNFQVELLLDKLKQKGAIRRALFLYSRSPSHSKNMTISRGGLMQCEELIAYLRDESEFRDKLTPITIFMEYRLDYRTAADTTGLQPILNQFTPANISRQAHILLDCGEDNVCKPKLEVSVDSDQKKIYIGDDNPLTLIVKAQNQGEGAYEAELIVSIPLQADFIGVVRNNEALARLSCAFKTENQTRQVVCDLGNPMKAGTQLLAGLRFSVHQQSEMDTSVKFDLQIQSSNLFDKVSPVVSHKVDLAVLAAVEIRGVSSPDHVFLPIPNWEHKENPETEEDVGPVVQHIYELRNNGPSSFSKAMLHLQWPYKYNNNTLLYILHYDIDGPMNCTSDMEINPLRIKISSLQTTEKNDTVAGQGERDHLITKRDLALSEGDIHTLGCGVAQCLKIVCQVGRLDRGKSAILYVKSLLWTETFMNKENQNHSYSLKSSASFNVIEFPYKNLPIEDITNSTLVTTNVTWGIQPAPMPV
Recombinant human integrin αvβ8, sequence (P26012 43-684): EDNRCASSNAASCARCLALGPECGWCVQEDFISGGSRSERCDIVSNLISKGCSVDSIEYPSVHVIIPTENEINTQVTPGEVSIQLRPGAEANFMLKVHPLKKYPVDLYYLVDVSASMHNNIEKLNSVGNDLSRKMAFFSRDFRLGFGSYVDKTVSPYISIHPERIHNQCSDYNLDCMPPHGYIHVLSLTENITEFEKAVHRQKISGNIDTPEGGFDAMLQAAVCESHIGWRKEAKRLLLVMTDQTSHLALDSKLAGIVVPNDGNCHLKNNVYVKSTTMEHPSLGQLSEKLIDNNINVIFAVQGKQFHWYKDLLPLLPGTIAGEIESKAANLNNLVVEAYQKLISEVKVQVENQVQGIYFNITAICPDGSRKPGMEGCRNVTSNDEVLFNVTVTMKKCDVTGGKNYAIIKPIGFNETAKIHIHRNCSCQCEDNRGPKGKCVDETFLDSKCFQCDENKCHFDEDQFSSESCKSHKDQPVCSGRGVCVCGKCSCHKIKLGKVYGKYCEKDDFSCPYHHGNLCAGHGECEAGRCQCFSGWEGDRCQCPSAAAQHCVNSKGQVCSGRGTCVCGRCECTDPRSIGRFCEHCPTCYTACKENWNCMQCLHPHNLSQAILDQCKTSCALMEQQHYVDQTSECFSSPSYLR

Regarding `O=C(O)C[C@H](NC(=O)CNC(=O)c1cc(O)cc(NC2=NCC(O)CN2)c1)c1cc(C(F)(F)F)cc(C(F)(F)F)c1` (stereo partly drawn) [Example 10, (3S)-3-[3,5-bis(trifluoromethyl)phenyl)-3-(2-(3-hydroxy-5-((5-hydroxy-1,4,5,6-tetrahydropyrimidin-2-yl)amino)benzamido)acetamido]propanoic acid], the 50% inhibitory concentration (IC50) in data set [1] was determined as 0.3 ± 0.1 nM. Also, in data set [2], the half-life was 3.9 h. For the same compound, the AUC(0-inf) in data set [3] amounted to 13000 ng·h/mL.
`Cc1cc(Cl)cc([C@H](CC(=O)O)NC(=O)CNC(=O)c2cc(O)cc(NC3=NCC(O)CN3)c2)c1` (stereo partly drawn) [Example 12, (3S)-3-[3-chloro-5-methyl-phenyl)-3-(2-(3-hydroxy-5-((5-hydroxy-1,4,5,6-tetrahydropyrimidin-2-yl)amino)benzamido)acetamido)propanoic acid]: the IC50 in data set [1] turned out to be 0.7 ± 0.1 nM. Besides, the half-life in data set [2] was 13.7 h. Moreover, the AUC(0-inf) in data set [3] was 9110 ng·h/mL.
The matching figures for `O=C(O)C[C@H](NC(=O)CNC(=O)c1cncc(NC2=NCC(O)CN2)c1)c1cc(Cl)cc(C(F)(F)F)c1` (stereo partly drawn) [Example 7]: 0.4 nM, 4.6 h and 3890 ng·h/mL.

Source of the values: patent US10035778B2, “Meta-azacyclic amino benzoic acid derivatives as pan integrin antagonists” (Saint Louis University, priority 2015, dated 2018).
